Experimental data taken from US9353082B2, “Pharmaceutical compounds” (BIAL—PORTELA & CA, S.A., priority 2008, dated 2016).

Molecular target: T1, FAAH (Rattus norvegicus, UniProt P97612)
T1 construct: Frozen brains (without cerebellum) from Wistar rats were used; from tissue; host or cells: Wistar rat brain (without cerebellum), washed membrane pellets
T1 sequence (P97612 1-579): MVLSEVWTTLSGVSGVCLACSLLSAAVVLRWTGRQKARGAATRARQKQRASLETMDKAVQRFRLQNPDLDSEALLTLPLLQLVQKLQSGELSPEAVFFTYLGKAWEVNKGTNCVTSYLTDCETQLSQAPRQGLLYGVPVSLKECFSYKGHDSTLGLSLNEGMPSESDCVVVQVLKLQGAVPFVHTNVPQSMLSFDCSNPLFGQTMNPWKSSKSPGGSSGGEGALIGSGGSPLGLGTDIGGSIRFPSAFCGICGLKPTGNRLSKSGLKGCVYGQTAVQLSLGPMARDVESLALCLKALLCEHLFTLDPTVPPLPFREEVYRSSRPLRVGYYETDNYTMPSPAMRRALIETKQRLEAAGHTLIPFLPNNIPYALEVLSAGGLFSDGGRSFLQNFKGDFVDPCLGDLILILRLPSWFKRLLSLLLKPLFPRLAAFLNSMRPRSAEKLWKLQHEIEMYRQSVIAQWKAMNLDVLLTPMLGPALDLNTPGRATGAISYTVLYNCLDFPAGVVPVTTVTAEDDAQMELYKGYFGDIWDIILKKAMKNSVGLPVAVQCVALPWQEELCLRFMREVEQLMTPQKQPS
Assay: In vitro FAAH activity in rat brain membranes, 3H-AEA substrate, % of control
Format: biochemical, Wistar rats
Details: 100 nM test compound, low value = strong inhibitor
In short: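 FAAH activity measured as 3H-ethanolamine released from 2 μM [3H]AEA over 10 min by rat brain membrane preparation, after 15 min 37 °C preincubation with test compound at 10 or 0.1 μM. Charcoal-separated supernatant scintillation-counted; values expressed as % of control minus no-protein blank.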

SMILES	In Vitro FAAH activity, 100 nM
C[C@@H]1CN(C(=O)n2nnc3ccccc32)C[C@H](C)O1 [Compound 194, (1H-benzo[d][1,2,3]triazol-1-yl)((2S,6R)-2,6-dimethylmorpholino)methanone]	64.2 % of control
O=C(N1CCC(CCCc2ccccc2)CC1)n1cnc(-c2ccc(Cl)cc2)c1 [Compound 197, (4-(4-chlorophenyl)-1H-imidazol-1-yl)(4-(3-phenylpropyl)piperidin-1-yl)methanone]	0.3 % of control
O=C(N1CCC2(CC1)OCCO2)n1cnc(-c2ccc(Cl)c(Cl)c2)c1 [Compound 198, (4-(3,4-dichlorophenyl)-1H-imidazol-1-yl)(1,4-dioxa-8-azaspiro[4.5]decan-8-yl)methanone]	33 % of control
CN(C(=O)n1cnc(-c2cccc(OCCN3CCNCC3)c2)c1)c1ccccc1.Cl.Cl [Compound 200, N-methyl-N-phenyl-4-(3-(2-(piperazin-1-yl)ethoxy)phenyl)-1H-imidazole-1-carboxamide dihydrochloride]	100.1 % of control
O=C(N1CCN(C2CCCCC2)CC1)n1cnc(-c2ccc(F)c(F)c2)c1 [Compound 201, (4-cyclohexylpiperazin-1-yl)(4-(3,4-difluorophenyl)-1H-imidazol-1-yl)methanone]	0.3 % of control
CCN(CCOCc1ccccc1)C(=O)n1nnc2ccccc21 [Compound 202, N-(2-(benzyloxy)ethyl)-N-ethyl-1H-benzo[d][1,2,3]triazole-1-carboxamide]	0.1 % of control
O=C(N1CCC2(CC1)OCCO2)n1cnc(-c2ccc(Cl)cc2)n1 [Compound 204, (3-(4-chlorophenyl)-1H-1,2,4-triazol-1-yl)(1,4-dioxa-8-azaspiro[4.5]decan-8-yl)methanone]	15.8 % of control
COc1ccc(-c2ncn(C(=O)N3CCC(CCCc4ccccc4)CC3)n2)cc1 [Compound 205, (3-(4-methoxyphenyl)-1H-1,2,4-triazol-1-yl)(4-(3-phenylpropyl)piperidin-1-yl)methanone]	0.2 % of control
O=C(N1CCN(c2ccccc2)CC1)n1cnc(-c2cccc3ccccc23)n1 [Compound 206, (3-(naphthalen-1-yl)-1H-1,2,4-triazol-1-yl)(4-phenylpiperazin-1-yl)methanone]	3.3 % of control
NC(=O)c1ccc(Oc2cccc(-c3ncn(C(=O)N4CCc5ccccc5C4)n3)c2)cc1 [Compound 207, 4-(3-(1-(1,2,3,4-tetrahydroisoquinoline-2-carbonyl)-1H-1,2,4-triazol-3-yl)phenoxy)benzamide]	31.6 % of control
NC(=O)c1ccc(Oc2cccc(-c3ncn(C(=O)N4CCOCC4)n3)c2)cc1 [Compound 210, 4-(3-(1-(morpholine-4-carbonyl)-1H-1,2,4-triazol-3-yl)phenoxy)benzamide]	73.3 % of control
COc1ccc(-c2ncn(C(=O)N3CCN(c4ccc(F)cc4)CC3)n2)cc1 [Compound 211, (4-(4-fluorophenyl)piperazin-1-yl)(3-(4-methoxyphenyl)-1H-1,2,4-triazol-1-yl)methanone]	1.9 % of control
Cl.O=C(N1CCN(C2CCCCC2)CC1)n1cnc(-c2ccc(Cl)cc2)n1 [Compound 212, (3-(4-chlorophenyl)-1H-1,2,4-triazol-1-yl)(4-cyclohexylpiperazin-1-yl)methanone hydrochloride]	0.8 % of control
O=C(N1CCSC1)n1cnc(-c2ccc(Cl)cc2)n1 [Compound 214, (3-(4-chlorophenyl)-1H-1,2,4-triazol-1-yl)(thiazolidin-3-yl)methanone]	23.7 % of control
O=C(N1CCSC1)n1cnc(-c2ccc(F)c(F)c2)c1 [Compound 215, (4-(3,4-difluorophenyl)-1H-imidazol-1-yl)(thiazolidin-3-yl)methanone]	16.7 % of control
O=C(N1CCCC1)n1cnc(-c2ccc(Cl)c(Cl)c2)c1 [Compound 218, (4-(3,4-dichlorophenyl)-1H-imidazol-1-yl)(pyrrolidin-1-yl)methanone]	31.6 % of control
O=C(N1CCN(c2ccc(F)cc2)CC1)n1cnc(-c2ccc(Cl)cc2)c1 [Compound 223, (4-(4-chlorophenyl)-1H-imidazol-1-yl)(4-(4-fluorophenyl)piperazin-1-yl)methanone]	1.1 % of control
Br.CN(C(=O)n1cnc(-c2ccc(OCCN3CCCCC3)cc2)c1)c1ccccc1 [Compound 224, N-methyl-N-phenyl-4-(4-(2-(piperidin-1-yl)ethoxy)phenyl)-1H-imidazole-1-carboxamide hydrobromide]	90 % of control

SMILES	In Vitro FAAH activity, 100 nM
COc1cc(-c2cn(C(=O)N3COCC3(C)C)cn2)ccc1OCc1ccccc1 [Compound 225, (4-(4-(benzyloxy)-3-methoxyphenyl)-1H-imidazol-1-yl)(4,4-dimethyloxazolidin-3-yl)methanone]	79 % of control
CC1OCCN1C(=O)n1cnc(-c2ccccc2)c1 (stereo not drawn) [Compound 227, (2-methyloxazolidin-3-yl)(4-phenyl-1H-imidazol-1-yl)methanone]	64.7 % of control
CN(C(=O)n1cnc(-c2ccccc2)c1)C12CC3CC(CC(C3)C1)C2 [Compound 229]	99.2 % of control
CN(C(=O)n1cnc(-c2ccc(OCCN3CCOCC3)cc2)c1)c1ccccc1.Cl [Compound 230, N-methyl-4-(4-(2-morpholinoethoxy)phenyl)-N-phenyl-1H-imidazole-1-carboxamide hydrochloride]	96.1 % of control
O=C(OCCN(C(=O)n1cnc(-c2ccccc2)c1)C1=CCCC1)n1cnc(-c2ccccc2)c1 [Compound 234, 2-(N-cyclopentenyl-4-phenyl-1H-imidazole-1-carboxamido)ethyl 4-phenyl-1H-imidazole-1-carboxylate]	78.2 % of control
O=C(NC12CC3CC(CC(C3)C1)C2)n1cnc(-c2ccccc2)c1 [Compound 237]	91.6 % of control
O=C(N1CCOC1c1ccccc1)n1cnc(-c2ccc(Cl)cc2)c1 (stereo not drawn) [Compound 241, (4-(4-chlorophenyl)-1H-imidazol-1-yl)(2-phenyloxazolidin-3-yl)methanone]	76.5 % of control
CN(C(=O)n1nnc2ccc(O)cc21)C1CCCCC1 [Compound 242, N-cyclohexyl-6-hydroxy-N-methyl-1H-benzo[d][1,2,3]triazole-1-carboxamide]	0 % of control
CC1(C)COCN1C(=O)n1nnc2cc(-c3cccc(C(N)=O)c3)ccc21 [Compound 243, 3-(1-(4,4-dimethyloxazolidine-3-carbonyl)-1H-benzo[d][1,2,3]triazol-5-yl)benzamide]	39.7 % of control
CN(C(=O)n1cnc(-c2ccc(Cl)cc2)c1)C1CCCC1 [Compound 244, 4-(4-chlorophenyl)-N-cyclopentyl-N-methyl-1H-imidazole-1-carboxamide]	5.4 % of control
CN(C(=O)n1cnc(-c2cccc(-c3cccc(F)c3)c2)c1)C1CCCCC1 [Compound 246, N-cyclohexyl-4-(3′-fluorobiphenyl-3-yl)-N-methyl-1H-imidazole-1-carboxamide]	2.9 % of control
CC(C)N(Cc1ccccc1)C(=O)n1cnc(-c2ccc(Cl)cc2)c1 [Compound 249, N-benzyl-4-(4-chlorophenyl)-N-isopropyl-1H-imidazole-1-carboxamide]	95.8 % of control
CC(C)(C)N(Cc1ccccc1)C(=O)n1cnc(-c2ccccc2)c1 [Compound 251, N-benzyl-N-tert-butyl-4-phenyl-1H-imidazole-1-carboxamide]	91.7 % of control
CC(C)(C)N(Cc1ccccc1)C(=O)n1cnc(-c2ccc(Cl)cc2)c1 [Compound 252, N-benzyl-N-tert-butyl-4-(4-chlorophenyl)-1H-imidazole-1-carboxamide]	83.6 % of control
O=C(N1CCS(=O)(=O)C1)n1cnc(-c2ccc(Cl)cc2)n1 [Compound 253, 3-(4-chlorophenyl)-1-[(1,1-dioxido-1,3-thiazolidin-3-yl)carbonyl]-1H-1,2,4-triazole]	107.7 % of control
COc1cccc(-c2cn(C(=O)N(Cc3ccccc3)C(C)C)cn2)c1 [Compound 255, N-benzyl-N-isopropyl-4-(3-methoxyphenyl)-1H-imidazole-1-carboxamide]	96.7 % of control
COc1cccc(-c2cn(C(=O)N(Cc3ccccc3)C(C)(C)C)cn2)c1 [Compound 256, N-benzyl-N-tert-butyl-4-(3-methoxyphenyl)-1H-imidazole-1-carboxamide]	105.6 % of control
CCOc1cccc(-c2cccc(-c3cn(C(=O)N(C)C4CCCCC4)cn3)c2)c1 [Compound 258, N-cyclohexyl-4-(3'-ethoxybiphenyl-3-yl)-N-methyl-1H-imidazole-1-carboxamide]	39.9 % of control
